Data taken from US11572398B2, “GLP-1 derivatives and uses thereof” (Novo Nordisk A/S, priority 2014, dated 2023).
Read-outs that look alike come from different tables or passages of the source. Non-standard residues stand in square brackets, D forms with d. Residues, ends and D or L forms follow the SMILES beside them. Groups on a side chain read outwards from the residue. *: point of attachment. X2 = O=C(O)CCCCCCCCCCCCCCCCCCC(=O)NC[C@H]1CC[C@H](C(=O)N[C@@H](CCC(=O)NCCCN(CCCNC(=O)CC[C@H](NC(=O)[C@H]2CC[C@H](CNC(=O)CCCCCCCCCCCCCCCCCCC(=O)O)CC2)C(=O)O)CC(=O)*)C(=O)O)CC1; AEEA = NCCOCCOCC(=O)O; Aib = CC(C)(N)C(=O)O

Experiments:
human GLP-1 receptor [1] = target: T1, human GLP-1 receptor (Homo sapiens, UniProt P43220); assay: In vitro potency: CRE luciferase reporter gene assay in BHK cells expressing the human GLP-1 receptor; format: cell-based; settings: whole cell reporter gene assay, BHK cells, human GLP-1 receptor; average of at least two replicates; read-out: EC50
T1 construct: expressed in transfected cells; host or cells: BHK cells (parent line BHKTS13), clone FCW467-12A; membrane preparation
Procedure: The purpose of this example is to test the activity, or potency, of the GLP-1 derivatives in vitro. The in vitro potency is the measure of human GLP-1 receptor activation in a whole cell assay.
In vitro potency was determined by measuring the response of the human GLP-1 receptor in a reporter gene assay. The assay was performed in a stably transfected BHK cell line that expresses the human GLP-1 receptor and contains the DNA for the cAMP response element (CRE) coupled to a promoter and the gene for firefly luciferase (CRE luciferase). When the human GLP-1 receptor is activated it results in the production of cAMP, which in turn results in the luciferase protein being expressed. When assay incubation is completed the luciferase substrate (luciferin) is added and the enzyme converts luciferin to oxyluciferin to produce bioluminescence. The luminescence is measured as the readout for the assay.
The cells were cultured at 5% CO2 in cell culture medium. They were aliquoted and stored in liquid nitrogen. Before each assay an aliquot was taken up and washed twice in PBS before being suspended at the desired concentration in the assay specific buffer.
The assay buffer consisted of 2% ovalbumin and 0.2% Pluronic F-68 in assay medium.
1) Cell stocks were thawed in a 37° C. water bath.
2) Cells were washed three times in PBS.
3) Cells were counted and adjusted to 5×10^3 cells/50 μl (1×10^5 cells/ml) in assay medium. A 50 μl aliquot of cells was transferred to each well in the assay plate.
4) Stocks of the test compounds and reference compounds were diluted to a concentration of 0.2 μM in assay buffer. […] 8) A 100 μl aliquot of steadylite plus reagent was added to each well of the assay plate. 9) Each assay plate was covered with aluminum foil to protect it from light and shaken for 30 min at room temperature. 10) Each assay plate was read in a BioTek Synergy 2 Multi-Mode Reader. Calculations and Results
The data from the BioTek Synergy 2 Multi-Mode Reader were transferred to GraphPad Prism software. The software performs a non-linear regression (log(agonist) vs response (three parameters)).
A minimum of two replicates were measured for each sample. The reported EC50 values are averages of all of the measured values for each compound.

human GLP-1 receptor [2] = target: T1, human GLP-1 receptor; assay: GLP-1 receptor binding: competitive binding assay (125I-GLP-1, SPA) on isolated membranes at low and high HSA
Procedure: The purpose of this example is to test the receptor binding of the GLP-1 derivatives in vitro. The receptor binding is a measure of affinity of a derivative for the human GLP-1 receptor.
Each derivative is added in a series of concentrations to isolated membranes containing the human GLP-1 receptor and displacement of the labelled ligand is monitored. The receptor binding is reported as the concentration at which half of the labelled ligand is displaced from the receptor, the IC50 value.
Buffer 1 consisted of 20 mM Na-HEPES plus 10 mM EDTA and pH was adjusted to 7.4. Buffer 2 consisted of 20 mM Na-HEPES plus 0.1 mM EDTA and pH was adjusted to 7.4. Assay buffer consisted of 50 mM HEPES supplemented with 5 mM EGTA, 5 mM MgCl2, 0.005% Tween 20 and pH was adjusted to 7.4. An 8% albumin stock consisted of HSA dissolved at 8% (w/v) in assay buffer. An 0.02% albumin stock consisted of HSA dissolved at 0.02% (w/v) in assay buffer.
The cells express the human GLP-1 receptor.
The cells were grown at 5% CO2 in DMEM, 10% fetal calf serum, 1% Pen/Strep (Penicillin/Streptomycin) and 1.0 mg/ml of the selection marker G418. To make a membrane preparation the cells were grown to approximately 80% confluence. The cells were washed twice in phosphate-buffered saline and harvested. The cells were pelleted using a brief centrifugation and the cell pellet was kept on ice. […] The homogenate was centrifuged for 15 minutes. The pellet was re-suspended (homogenised) in 10 ml buffer 2 and centrifuged. This step was repeated once more. The resulting pellet was re-suspended in buffer 2 and the protein concentration was determined. The membranes were aliquoted and stored at minus 80° C.
1. […] Assay continued with step 3.
2. For the receptor binding assay in the presence of high HSA (2%) 50 μl of the 8% albumin stock was added to each well of an assay plate. Assay continued with step 3.
4. Cell membrane aliquots were thawed and diluted to their working concentration. Fifty μl were added to each well in the assay plate.
5. WGA SPA beads were suspended in assay buffer at 20 mg/ml. The suspension was diluted to 10 mg/ml in assay buffer just prior to addition to the assay plate. Fifty μl were added to each well in the assay plate.
6. […] A 25 μl aliquot was reserved for measuring total counts/well.
7. The assay plate was incubated for 2 h at 30° C.
8. The assay plate was centrifuged for 10 min.
9. The assay plate was read in a Packard TopCount NXT instrument.
The data from the TopCount instrument were transferred to GraphPad Prism software. Individual replicates were analysed using non-linear regression. IC50 values were calculated by the software and reported in nM. The reported values are averages of all of the measured values for each compound.

[3] = Low HSA IC50, low HSA (max. 0.001% final assay concentration)
[4] = high HSA (2.0% final assay concentration), read-out: High HSA IC50

T1 sequence (P43220 24-463): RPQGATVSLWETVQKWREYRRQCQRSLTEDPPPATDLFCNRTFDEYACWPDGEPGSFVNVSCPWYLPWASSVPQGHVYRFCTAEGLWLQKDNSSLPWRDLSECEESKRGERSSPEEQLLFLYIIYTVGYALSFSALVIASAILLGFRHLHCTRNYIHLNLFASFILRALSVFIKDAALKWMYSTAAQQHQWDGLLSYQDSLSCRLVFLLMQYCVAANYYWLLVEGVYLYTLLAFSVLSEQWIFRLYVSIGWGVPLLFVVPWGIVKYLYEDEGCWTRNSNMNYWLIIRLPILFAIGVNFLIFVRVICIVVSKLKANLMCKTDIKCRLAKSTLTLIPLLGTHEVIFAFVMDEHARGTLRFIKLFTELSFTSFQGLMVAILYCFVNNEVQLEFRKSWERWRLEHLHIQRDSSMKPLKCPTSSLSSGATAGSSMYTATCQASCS

SMILES | EC50 (human GLP-1 receptor [1]) [nM] | IC50 (human GLP-1 receptor [2]; [3]) [nM] | IC50 (human GLP-1 receptor [2]; [4]) [nM]
CC[C@H](C)[C@H](NC(=O)[C@H](Cc1ccccc1)NC(=O)[C@H](CCC(=O)O)NC(=O)[C@H](CCCNC(=N)N)NC(=O)[C@H](C)NC(=O)[C@H](C)NC(=O)[C@H](CCC(N)=O)NC(=O)[C@H](CCC(=O)O)NC(=O)[C@H](CCC(=O)O)NC(=O)[C@H](CC(C)C)NC(=O)[C@H](Cc1ccc(O)cc1)NC(=O)[C@H](CO)NC(=O)[C@H](CO)NC(=O)[C@@H](NC(=O)[C@H](CC(=O)O)NC(=O)[C@H](CO)NC(=O)[C@@H](NC(=O)[C@H](Cc1ccccc1)NC(=O)[C@@H](NC(=O)CNC(=O)[C@H](CCC(=O)O)NC(=O)C(C)(C)NC(=O)[C@@H](N)Cc1c[nH]cn1)[C@@H](C)O)[C@@H](C)O)C(C)C)C(=O)N[C@@H](C)C(=O)N[C@@H](Cc1c[nH]c2ccccc12)C(=O)N[C@@H](CC(C)C)C(=O)N[C@H](C(=O)N[C@@H](CCCNC(=N)N)C(=O)NCC(=O)N[C@@H](CCCNC(=N)N)C(=O)N[C@@H](CCCCNC(=O)CN(CCCNC(=O)COCCOCCNC(=O)COCCOCCNC(=O)COCCOCCNC(=O)COCCOCCNC(=O)COCCOCCNC(=O)CC[C@H](NC(=O)[C@H]1CC[C@H](CNC(=O)CCCCCCCCCCCCCCCS(=O)(=O)O)CC1)C(=O)O)CCCNC(=O)COCCOCCNC(=O)COCCOCCNC(=O)COCCOCCNC(=O)COCCOCCNC(=O)COCCOCCNC(=O)CC[C@H](NC(=O)[C@H]1CC[C@H](CNC(=O)CCCCCCCCCCCCCCCS(=O)(=O)O)CC1)C(=O)O)C(=O)O)C(C)C [Example 23, N{Epsilon-37}-[2-[bis[3-[[2-[2-[2-[[2-[2-[2-[[2-[2-[2-[[2-[2-[2-[[2-[2-[2-[[(4S)-4-carboxy-4-[[4-[(16-sulfohexadecanoylamino)methyl]cyclohexanecarbonyl]amino]butanoyl]amino]ethoxy]ethoxy]acetyl]amino]ethoxy]ethoxy]acetyl]amino]ethoxy]ethoxy]acetyl]amino]ethoxy]ethoxy]acetyl]amino]ethoxy]ethoxy]acetyl]amino]propyl]amino]acetyl]-[Aib8,Glu22,Arg26,Arg34,Lys37]-GLP-1-(7-37)-peptide] | 0.0014 | 0.14 | 16
CC[C@H](C)[C@H](NC(=O)[C@H](Cc1ccccc1)NC(=O)[C@H](CCC(=O)O)NC(=O)[C@H](CCCNC(=N)N)NC(=O)[C@H](C)NC(=O)[C@H](C)NC(=O)[C@H](CCC(N)=O)NC(=O)[C@H](CCC(=O)O)NC(=O)[C@H](CCC(=O)O)NC(=O)[C@H](CC(C)C)NC(=O)[C@H](Cc1ccc(O)cc1)NC(=O)[C@H](CO)NC(=O)[C@H](CO)NC(=O)[C@@H](NC(=O)[C@H](CC(=O)O)NC(=O)[C@H](CO)NC(=O)[C@@H](NC(=O)[C@H](Cc1ccccc1)NC(=O)[C@@H](NC(=O)CNC(=O)[C@H](CCC(=O)O)NC(=O)C(C)(C)NC(=O)[C@@H](N)Cc1c[nH]cn1)[C@@H](C)O)[C@@H](C)O)C(C)C)C(=O)N[C@@H](C)C(=O)N[C@@H](Cc1c[nH]c2ccccc12)C(=O)N[C@@H](CC(C)C)C(=O)N[C@H](C(=O)N[C@@H](CCCNC(=N)N)C(=O)NCC(=O)N[C@@H](CCCNC(=N)N)C(=O)N[C@@H](CCCCNC(=O)CN(CCCNC(=O)COCCOCCNC(=O)COCCOCCNC(=O)COCCOCCNC(=O)COCCOCCNC(=O)COCCOCCNC(=O)CC[C@H](NC(=O)[C@H]1CC[C@H](CNC(=O)CCCNC(=O)CCCCCCCCCCCCCCCS(=O)(=O)O)CC1)C(=O)O)CCCNC(=O)COCCOCCNC(=O)COCCOCCNC(=O)COCCOCCNC(=O)COCCOCCNC(=O)COCCOCCNC(=O)CC[C@H](NC(=O)[C@H]1CC[C@H](CNC(=O)CCCNC(=O)CCCCCCCCCCCCCCCS(=O)(=O)O)CC1)C(=O)O)C(=O)O)C(C)C [Example 20, N{Epsilon-37}-[2-[bis[3-[[2-[2-[2-[[2-[2-[2-[[2-[2-[2-[[2-[2-[2-[[2-[2-[2-[[(4S)-4-carboxy-4-[[4-[[4-(16-sulfohexadecanoylamino)butanoylamino]methyl]cyclohexanecarbonyl]amino]butanoyl]amino]ethoxy]ethoxy]acetyl]amino]ethoxy]ethoxy]acetyl]amino]ethoxy]ethoxy]acetyl]amino]ethoxy]ethoxy]acetyl]amino]ethoxy]ethoxy]acetyl]amino]propyl]amino]acetyl]-[Aib8,Glu22,Arg26,Arg34,Lys37]-GLP-1-(7-37)-peptide] | 0.0016 | 0.14 | 3.7
CC[C@H](C)[C@H](NC(=O)[C@H](Cc1ccccc1)NC(=O)[C@H](CCC(=O)O)NC(=O)[C@H](CCCNC(=N)N)NC(=O)[C@H](C)NC(=O)[C@H](C)NC(=O)[C@H](CCC(N)=O)NC(=O)[C@H](CCC(=O)O)NC(=O)[C@H](CCC(=O)O)NC(=O)[C@H](CC(C)C)NC(=O)[C@H](Cc1ccc(O)cc1)NC(=O)[C@H](CO)NC(=O)[C@H](CO)NC(=O)[C@@H](NC(=O)[C@H](CC(=O)O)NC(=O)[C@H](CO)NC(=O)[C@@H](NC(=O)[C@H](Cc1ccccc1)NC(=O)[C@@H](NC(=O)CNC(=O)[C@H](CCC(=O)O)NC(=O)C(C)(C)NC(=O)[C@@H](N)Cc1c[nH]cn1)[C@@H](C)O)[C@@H](C)O)C(C)C)C(=O)N[C@@H](C)C(=O)N[C@@H](Cc1c[nH]c2ccccc12)C(=O)N[C@@H](CC(C)C)C(=O)N[C@H](C(=O)N[C@@H](CCCNC(=N)N)C(=O)NCC(=O)N[C@@H](CCCCNC(=O)COCCOCCNC(=O)COCCOCCNC(=O)COCCOCCNC(=O)COCCOCCNC(=O)COCCOCCNC(=O)COCCOCCNC(=O)CN(CCCNC(=O)CC[C@H](NC(=O)[C@H]1CC[C@H](CNC(=O)CCCCCCCCCCCCCCCCCCC(=O)O)CC1)C(=O)O)CCCNC(=O)CC[C@H](NC(=O)[C@H]1CC[C@H](CNC(=O)CCCCCCCCCCCCCCCCCCC(=O)O)CC1)C(=O)O)C(=O)NCC(=O)O)C(C)C [Example 30] (H-H[Aib]EGTFTSDVSSYLEEQAAREFIAWLVRGK([AEEA-AEEA-AEEA-AEEA-AEEA-AEEA-X2])G-OH; N-terminus and C-terminus assumed) |  |  | 4.1
